One assay concerns the target T1, HSA (defatted HSAA3782) (Homo sapiens, UniProt P02768).
T1 construct: two human serum albumin (HSA) samples derived from pooled human plasma; purchased Sigma Aldrich A3782; host or cells: pooled human plasma
The assay can be described thus: Isothermal titration calorimetry of AA-HSA interactions. The format is binding. Particulars: for Ka (macroscopic association constant), Site 1 / Ka (macroscopic association constant), Site 2 / Ka (KA1), site 1 / Ka (KA2), site 2 / Kd: two-site model; for Ka (KA1), site 1: site 1, 25 °C; for Ka (KA2), site 2: site 2, 25 °C; for ΔG°, Site 1 / ΔG°, Site 2: ΔG° = −RTlnKa, T = 298 K. The source says:
We have assessed the binding affinities of AA-I and AA-II for HSAA3782 by conducting a series of ITC experiments. […] An initial analysis of the AA-HSA binding isotherms using conventional fitting programs provides a reasonable estimate for the binding stoichiometry of two AA ligands per HSA molecule. […] Given the challenges associated with baseline assignments, we subsequently employed the NITPIC/SEDPHAT/GUSSI software suite ([60]) to ensure unambiguous analysis of the binding isotherms. Singular value decomposition yields baseline-corrected association data that are analyzed via a two-site binding model to derive macroscopic affinities for AA-HSA interactions in accordance with the following relation: A+B+B↔[AB]+B↔ABB where A represents the HSA macromolecule and B represents ligand AA-I or AA-II. This binding model implies that both sites are occupied with all possible ligation states coexisting in equilibrium.
Binding parameters for the association of defatted HSAA3782 with AA-I and AA-II were determined calorimetrically employing a MicroCal VP-ITC instrument (Malvern Panalytical). Protein stock solutions (0.5–1.5 mM) were prepared by BME reduction to disrupt potential CyS34-CyS34 dimers and dialyzed against three 500 ml exchanges of 10 mM sodium phosphate buffer (pH 7.5). Aliquots of the respective AA ligand stocks were dissolved in protein dialysate and the final DMSO concentration adjusted to 2%. The HSA standard was prepared by diluting an appropriate aliquot in dialysate containing 2% DMSO to match the syringe solution contents. Each ITC experiment consists of thirty consecutive 10.0 μl injections during which the reaction heat is monitored and integrated over a 5-min interval under constant stirring conditions. The experimental protocol has been designed to ensure that there is at least a 15-fold excess of either AA-I or AA-II (75–200 μM) in the titration syringe relative to the initial HSA concentration (5–10 μM) in the reaction cell.
Binding isotherms acquired at 25 °C were generated by recording the integrated reaction heats normalized for AA concentration versus ligand:protein ratio. […] We subsequently applied the NITPIC/SEDPHAT/GUSSI suite of software programs ([60], [88]) to ensure unbiased baseline assignments and peak integrations that facilitated selection of an appropriate binding model to characterize this protein-ligand system. The SEDPHAT program affords significant flexibility by allowing implicit and explicit uncertainty corrections that facilitate assessment of incompetent binding species in the protein and/or ligand. A nonlinear least squares analysis of the resultant profiles invoking a symmetric two-site binding model yields an optimal fit of the isotherms and requisite macroscopic parameters for AA-HSA interactions.
On the technique in general: In ITC the heat of successive injections is recorded.

The target in assay [1] is T2, HSA (HSAA3782 and HSAA8763 mercaptoalbumins) (Homo sapiens, UniProt P02768).
T2 construct: two human serum albumin (HSA) samples derived from pooled human plasma; purchased Sigma Aldrich A3782; A8763; host or cells: pooled human plasma
T2 sequence (P02768 25-609): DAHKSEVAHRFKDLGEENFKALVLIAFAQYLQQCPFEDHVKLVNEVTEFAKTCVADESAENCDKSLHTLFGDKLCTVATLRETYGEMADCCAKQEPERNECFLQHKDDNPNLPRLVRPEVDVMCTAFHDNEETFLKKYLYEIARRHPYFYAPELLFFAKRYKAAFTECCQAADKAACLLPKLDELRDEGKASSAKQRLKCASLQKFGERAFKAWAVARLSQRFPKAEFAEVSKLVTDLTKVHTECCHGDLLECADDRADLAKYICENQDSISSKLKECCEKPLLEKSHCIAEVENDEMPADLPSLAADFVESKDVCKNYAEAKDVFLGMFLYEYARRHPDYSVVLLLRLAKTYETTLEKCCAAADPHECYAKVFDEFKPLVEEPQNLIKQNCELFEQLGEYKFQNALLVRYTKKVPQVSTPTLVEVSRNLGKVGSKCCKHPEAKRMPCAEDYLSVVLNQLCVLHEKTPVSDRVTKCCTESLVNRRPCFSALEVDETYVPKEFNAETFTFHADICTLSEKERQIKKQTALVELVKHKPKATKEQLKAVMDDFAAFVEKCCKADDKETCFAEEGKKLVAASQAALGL
In words: HSA Trp214 fluorescence quenching assay. The format is binding. The source says: Ligand-induced quenching of the intrinsic HSA fluorescence has been assessed by monitoring a single Trp^214 residue located within the IIA binding cavity to derive equilibrium dissociation constants (KD) for numerous endogenous and exogenous molecules including aristolochic acids ([51], [52]). […] Addressing this deficiency, we prepared mercaptoalbumins from HSAA3782 and HSAA8763, consisting of fatty acid-free and limited fatty acid-containing HSA, respectively. We subsequently employed these well-defined HSA samples to conduct comparative fluorescence quenching studies in the presence of AA-I, AA-II, and their respective metabolites while concurrently evaluating the impact of fatty acid content on relative binding affinities.
Equilibrium fluorescence spectra of monomeric HSA samples were collected on an ISS PC1 photon counting spectrophotometer. An excitation wavelength of 295 nm was employed for HSAA3782 and HSAA8763 to selectively monitor tryptophan and avoid contributions of tyrosine residues. The excitation and emission slits were set to 1 nm and 2 nm, respectively. Prior to initiating the experiment, a stock solution of each AA compound (i.e., AA-I, AA-II, AL-I-NOH, AL-II-NOH, AL-I-NOAc. and AL-I-NOSO3) was prepared in DMSO by serial dilution to a 100-fold excess of their final concentration employed in the quenching experiments. HSA samples were diluted to 0.5, 1.0, and 2.5 μM in 10 mM KPi buffer (pH 7.5) and divided into 1 ml aliquots in Eppendorf tubes. A 10 μl aliquot of each AA compound was added to the HSA solutions to achieve a 0.2 to 50 μM concentration range in 1% DMSO. Each AA-HSA mixture was allowed to equilibrate at room temperature for at least 5 min, transferred to a 10 mm × 5 mm quartz cuvette, and emission spectrum recorded over the wavelength range of 310 to 460 nm employing a 2 nm step interval. Following each measurement, the quartz cuvette was cleaned, and the experiment repeated with the next AA:HSA ratio. […] Peak emission intensities at 340 nm were employed to construct fluorescence titration profiles for each AA compound.
Fluorescence titration profiles of the HSA quenching assays were generated using SigmaPlot 13.0. When applicable, the mean and standard deviations obtained from 3 to 5 independent measurements are reported. […] Invoking the SigmaPlot software suite, we applied the following binding model ([87]): F=Ffree−(Ffree−Fbound)∗[…] where F represents the fluorescence signal observed at each ligand concentration (Lt) and Pt is the total protein concentration. Upon fitting, one obtains values of Ffree and Fbound that correspond to the fluorescence of unbound and fully bound HSA, respectively. The number of binding sites and their respective affinities has been determined for AA-I and AA-II interactions with HSA via application of isothermal titration calorimetry as described in the following section.

The next assay concerns HSA. Further details: method as in PMID 16413837. Particulars: numerous binding sites; cited from earlier work.
[2] abbreviates: ITC, Site 1, 10 mM NaPO4 pH 7.5, 25 °C.
The mark [3] stands for this setting: ITC, Site 2, 10 mM NaPO4 pH 7.5, 25 °C.
[4] abbreviates: fatty acid-containing HSA, mean ± SD of 3 to 5 measurements, 10 mM KPi pH 7.5, read-out: KDapp (HSAA8763).
Setting [5] is: fatty acid-free HSA, mean ± SD of 3 to 5 measurements, 10 mM KPi pH 7.5, read-out: KDapp (HSAA3782).

Values joined by “and” are separate entries in the source; they are usually repeats but may differ in a detail not shown here. Equal entries are not always repeated. Where two headings read alike, the source gives them in different places.

T1 sequence (P02768 25-609): as above

Turning to `COc1cccc2c1cc([N+](=O)[O-])c1c(C(=O)O)cc3c(c12)OCO3` [AA-I, aristolochic acid I], the “Ka (macroscopic association constant), Site 1” value at HSA (defatted HSAA3782) (setting [2]) is 1.5 10^6 M^−1 and 1.50 ± 0.18 10^6 M^−1. Besides, the “Ka (macroscopic association constant), Site 2” value at HSA (defatted HSAA3782) (setting [3]) is 0.5 10^6 M^−1 and 0.54 ± 0.04 10^6 M^−1. Besides, at HSA (defatted HSAA3782) (ITC), the “Ka (KA1), site 1” value is 1.5e+06 M⁻¹ and the “Ka (KA2), site 2” value is 540000 M⁻¹. This molecule also returned a Kd on HSA (defatted HSAA3782) (KD, Site 1, ITC, Site 1, 10 mM NaPO4 pH 7.5, 25 °C) of 690 ± 80 nM. On HSA (defatted HSAA3782) (KD, Site 2, ITC, Site 2, 10 mM NaPO4 pH 7.5, 25 °C), this molecule showed a Kd of 1870 ± 120 nM. Also, on HSA (defatted HSAA3782), the “ΔG°, Site 1” value is -8.41 ± 1.00 kcal/mol and the “ΔG°, Site 2” value is -7.82 ± 0.58 kcal/mol. In assay [1], this molecule displayed a Kd of 430 ± 30 nM.

Regarding `O=C(O)c1cc2c(c3c1c([N+](=O)[O-])cc1ccccc13)OCO2` [AA-II, aristolochic acid II], the “association constant, first site” value on HSA (defatted HSAA3782) (ITC, first of two sites, as given in abstract) was 8.4 10^5 M^−1. Besides, on HSA (defatted HSAA3782) (ITC, second of two sites, as given in abstract), the “association constant, second site” value is 9.0 10^5 M^−1. Further, the “Ka (macroscopic association constant), Site 1” value on HSA (defatted HSAA3782) (setting [2]) is 0.84 ± 0.07 10^6 M^−1. The Kd at HSA (defatted HSAA3782) (ITC, Site 1, 10 mM NaPO4 pH 7.5, 25 °C, read-out: KD, Site 1) worked out at 1190 ± 190 nM; on HSA (defatted HSAA3782) (ITC, Site 2, 10 mM NaPO4 pH 7.5, 25 °C, read-out: KD, Site 2) it was 1110 ± 110 nM; in assay [1] (setting [4]), 360 ± 30 nM; in assay [1] (setting [5]), 630 ± 100 nM. The “Ka (macroscopic association constant), Site 2” value at HSA (defatted HSAA3782) (setting [3]) is given as 0.90 ± 0.10 10^6 M^−1. For the same molecule, at HSA (defatted HSAA3782) (ITC), the “Ka (KA1), site 1” value amounted to 840000 M⁻¹. For the same molecule, the “Ka (KA2), site 2” value on HSA (defatted HSAA3782) (ITC) was found to be 900000 M⁻¹. At HSA (defatted HSAA3782), the “ΔG°, Site 1” value is -8.10 ± 0.67 kcal/mol. For the same molecule, the “ΔG°, Site 2” value at HSA (defatted HSAA3782) is -8.12 ± 0.82 kcal/mol.

`COc1cccc2c1cc1c3c(cc4c(c32)OCO4)C(=O)N1OC(C)=O` [AL-I-NOAc]: the Kd in assay [1] (setting [4]) is 590 ± 70 nM; in assay [1] (setting [5]), 670 ± 130 nM.

As to `COc1cccc2c1cc1c3c(cc4c(c32)OCO4)C(=O)N1O` [AL-I-NOH, N-hydroxyaristolactam I], the figures for the Kd in assay [1] (setting [4]) and in assay [1] (setting [5]) were 740 ± 60 nM and 650 ± 60 nM, respectively.

Consider `CCCCCCCCCCCCCC(=O)O` [myristic acid], for which the “affinities for HSA binding sites” value in the assay with HSA is on record as 10^4 to 10^7 M^−1.

(Values after publication PMC11253539, “Structural and mechanistic insights into the transport of aristolochic acids and their active metabolites by human serum albumin” (The Journal of Biological Chemistry, 2024).)
